The conditions of data set [1]: cited from earlier work.
A further data set deals with xanthine oxidase. The following applies: cited from earlier work; for inhibiting the enzyme xanthine oxidase: allopurinol and oxypurinol compared with each other.
The next data set is described as follows: Solubility. In kind it is physicochemical. The following applies: methanol/water 3:1, organic solvent or mixture; 25° C.; read-out: solubility in methanol/water (3:1 by vol.). From the text: (§1) Said sodium salt is monosodium oxypurinol monohydrate. The salt is white and crystallizes in fine needles.
Data set [2] is described as follows: Stability of the salt on air and on drying. In kind it is physicochemical. The method, then: The salt is stable on air and endures drying temperatures up to about 70° C.
Another data set has as its system serum uric acid. Description: Uric acid decreasing effect in test persons with hyperuricaemia. The format is in vivo. The following applies: for decrease of the serum uric acid level: daily 384 mg sodium oxypurinol or 300 mg allopurinol, two weeks; for decrease of the serum uric acid level (in words): sodium oxypurinol compared with allopurinol.
The nature of data set [3]: pH value of aqueous solution. In kind it is physicochemical. The following applies: 5% aqueous solution.
Excerpt: However, from the examples it can be seen that not the pure sodium salt was used, but a mixture of salt and excess sodium hydroxide solution. This follows especially from the pH values of about 1 to 2% solutions, being 11.5 or 12.0. The sodium salt having been prepared by the applicant in pure and crystalline form for the first time has a pH value of 9.7 in 5% aqueous solution, and crystallizes as the monohydrate.
as §1

The conditions of data set [4]: portion of allopurinol; cited from earlier work.

SMILES strings stand for the structures. Entries after “also recorded” stand apart in the source; their conditions may differ. Where two headings read alike, the source gives them in different places.

On to `Oc1nc(O)c2cn[nH]c2n1` [oxypurinol, 4,6-dihydroxypyrazolo[3,4-d]pyrimidine], for which the “resorbable upon peroral application” value in data set [1] (from galenic formulations, per os) is on record as “no success was achieved in finding a galenic formulation being sufficiently resorbable per os”. The “inhibiting the enzyme xanthine oxidase” value in the data set with xanthine oxidase is recorded as “equally strongly”.

Turning to `Oc1nc(O)c2cn[nH]c2n1` [sodium oxypurinol, monosodium oxypurinol monohydrate], the solubility in “Solubility” was around 2000 µg/mL. For the same compound, in data set [2] (drying), the “endures drying temperatures up to” value is “about 70 °C”. The stability on air entry in data set [2] (on air) was “stable on air”. The “decrease of the serum uric acid level” value in the data set on serum uric acid worked out at 2.1 mg/100 ml. Further, the “decrease of the serum uric acid level (in words)” value with serum uric acid (monohydrate) was “comparable; also recorded: approximately equal decrease”. The compound also displayed a pH value in data set [3] of 9.7.

On to `Oc1ncnc2[nH]ncc12` [allopurinol], for which the “resorbable upon peroral application” value in data set [1] (in vivo) is “well resorbable”. Also, in the data set with xanthine oxidase, the “inhibiting the enzyme xanthine oxidase” value was “equally strongly”. The “activity of allopurinol itself” value with xanthine oxidase (therapeutic effect only after metabolizing to oxypurinol) is given as “little activity itself”. Besides, in data set [4], the excreted via kidneys is recorded as 3 to 10%. Besides, in the data set on serum uric acid, the “decrease of the serum uric acid level” value was determined as 2.0 mg/100 ml and the “decrease of the serum uric acid level (in words)” value is listed as “comparable; also recorded: approximately equal decrease”.

(Values after patent publication US5661154A (priority 1988, dated 1997).)
